# Test system: Glucane Synthesis of Candida Albicans (membranes of Candida albicans)
# Experiment: Inhibition of the glucane synthesis of Candida albicans (14C-UDP glucose incorporation by purified membranes)
# Assay type: biochemical
# Settings: Candida albicans membrane proteins, 25° C., 1 hour, result in words
# Description: A—Inhibition of the Glucane Synthesis of Candida Albicans.
# The membranes of Candida albicans are purified according to the process described by Tang and al Antimicrob. Agents Chemother 35, 99-103, 1991. 22.5 μg of membrane proteins are incubated in a mixture of 2 Mm of 14C-UDP glucose (specific activity=0.34 mCi./mmol, 50 μg of α-amylase, 1 Mm of dithiotreitol (DTT), 1 Mm EDTA, 100 Mm NaF, 7 μM of GTP-γ-S, 1M of sucrose and 5 oMm OF Ttris-HCL (pH 7.8) in a volume of 100 μl. The medium is incubated at 25° C. for 1 hour and the reaction terminated by addition of TCA to a final concentration of 5%. The reaction medium is transferred onto a pre-humidified glass fibre filter. The filter is washed, dried and its radioactivity is counted.
# Mulundocandin is used as positive control.
# The control of the medium is carried out with the same quantity of DMSO 1%.
row,Substance,Inhibition of the glucane synthesis of Candida albicans
1,(±) Trifluoroacetate of 1-[4-[(aminoiminomethyl) hydrazono]-N2-(12-methyl-1-oxotetradecyl)-L-ornithine]4-[4-(4-hydroxyphenyl)-L-threonine]-5-L serine echinocandin B [Example 11],good activity
2,Trifluoroacetate of 1-[4-[(2-aminoethyl) amino]-N2-(12-methyl-1-oxotetradecyl)-L-ornithine]4-[4-(4-hydroxyphenyl)-L-threonine]-5-L serine echinocandin B (isomer A and isomer B) [Example 9],good activity
3,Trifluoroacetate of 1-[4-[(2-aminoethyl) amino]N2-[[4′-(octyloxy)[1.1′-biphenyl]-4-[carbonyl]-L-ornithine]4-[4-(4-(4-hydroxyphenyl)-L-threonine]-5-L serine echinocandin B (isomer A) [Example 14],good activity

# From patent publication US20040072737A1, “Echinocandin derivatives, their method of preparation and their application as anti-fungal agents” (Aventis Pharma S.A., priority 1997, published 2004)
